Laboratory results published in patent publication US9200001B2, “Triazolyl PDE10 inhibitors” (Merck Sharp & Dohme Corp., priority 2011, dated 2015).
pKi: −log10 of the molar value.

Molecular target: human PDE10A2 (Homo sapiens (Human), UniProt Q9Y233)
Test: PDE10 fluorescence polarization (IMAP FP) inhibition assay
Assay type: biochemical
Settings: FAM-labeled cAMP 50 nM, room temperature, read-out: PDE10a Ki
Procedure: The activity of the compounds in accordance with the present invention as PDE10 inhibitors may be readily determined without undue experimentation using a fluorescence polarization (FP) methodology that is well known in the art (Huang, W., et al., J. Biomol Screen, 2002, 7: 215).
In a typical experiment the PDE10 inhibitory activity of the compounds of the present invention was determined in accordance with the following experimental method. PDE10A2 was amplified from human fetal brain cDNA (Clontech, Mountain View, Calif.) using a forward primer corresponding to nucleotides 56-77 of human PDE10A2 (Accession No. AF127480, Genbank Identifier 4894716), containing a Kozak consensus sequence, and a reverse primer corresponding to nucleotides 2406-2413 of human PDE10A2 (Accession No. AF127480, Genbank Identifier 4894716). Amplification with Easy-A polymerase (Stratagene, La Jolla, Calif.) was 95° C. for 2 minutes followed by thirty three cycles of 95° C. for 40 seconds, 55° C. for 30 seconds, and 72° C. for 2 minutes 48 seconds. Final extension was 72° C. for 7 minutes. The PCR product was TA cloned into pcDNA3.2-TOPO (Invitrogen, Carlsbad, Calif.) according to standard protocol. AD293 cells with 70-80% confluency were transiently transfected with human PDE10A2/pcDNA3.2-TOPO using Lipofectamine 2000 according to manufacturer specifications (Invitrogen, Carlsbad, Calif.). Cells were harvested 48 hours post-transfection and lysed by sonication (setting 3, 10×5 sec pulses) in a buffer containing 20 mM HEPES, 1 mM EDTA and protease inhibitor cocktail (Roche). Lysate was collected by centrifugation at 75,000×g for 20 minutes. Supernatant containing the cytoplasmic fraction was used for evaluation of PDE10A2 activity. The fluorescence polarization assay for cyclic nucleotide phosphodiesterases was performed using an IMAP® FP kit supplied by Molecular Devices, Sunnyvale, Calif. (product # R8139). IMAP® technology has been applied previously to phosphodiesterase assays (Huang, W., et al., J. Biomol Screen, 2002, 7: 215). Assays were performed at room temperature in 384-well microtiter plates with an incubation volume of 20.2 μL. Solutions of test compounds were prepared in DMSO and serially diluted with DMSO to yield 8 μL of each of 10 solutions differing by 3-fold in concentration, at 32 serial dilutions per plate. 100% inhibition is determined using a known PDE10 inhibitor, which can be any compound that is present at 5,000 times its Ki value in the assay described as follows, such as papaverine (see Siuciak, et al. Neuropharmacology (2006) 51:386-396; Becker, et al. Behav Brain Res (2008) 186(2):155-60; Threlfell, et al., J Pharmacol Exp Ther (2009) 328(3):785-795), 2-{4-[pyridin-4-yl-1-(2,2,2-trifluoroethyl)-1H-pyrazol-3-yl]phenoxymethyl}quinoline succinic acid or 2-[4-(1-methyl-4-pyridin-4-yl-1H-pyrazol-3-yl)-phenoxymethyl]quinoline succinic acid (see Schmidt, et al. J Pharmacol Exp Ther (2008) 325:681-690; Threlfall, et al., J Pharmacol Exp Ther (2009) 328(3): 785-795). 0% of inhibition is determined by using DMSO (1% final concentrations).
A Labcyte Echo 555 (Labcyte, Sunnyvale, Calif.) is used to dispense 200 nL from each well of the titration plate to the 384 well assay plate. A solution of enzyme (1/1600 dilution from aliquots; sufficient to produce 20% substrate conversion) and a separate solution of FAM-labeled cAMP PDE from Molecular Devices (product # R7506), at a final concentration of 50 nM are made in the assay buffer (10 mM Tris HCl, pH 7.2, 10 mM MgCl2, 0.05% NaN3 0.01% Tween-20, and 1 mM DTT). The enzyme and the substrate are then added to the assay plates in two consecutive additions of 10 μL, and then shaken to mix. The reaction is allowed to proceed at room temperature for 30 minutes. A binding solution is then made from the kit components, comprised of 80% Solution A, 20% Solution B and binding reagent at a volume of 1600 the total binding solution. […]

human PDE10A2, sequence (Q9Y233 267-1055): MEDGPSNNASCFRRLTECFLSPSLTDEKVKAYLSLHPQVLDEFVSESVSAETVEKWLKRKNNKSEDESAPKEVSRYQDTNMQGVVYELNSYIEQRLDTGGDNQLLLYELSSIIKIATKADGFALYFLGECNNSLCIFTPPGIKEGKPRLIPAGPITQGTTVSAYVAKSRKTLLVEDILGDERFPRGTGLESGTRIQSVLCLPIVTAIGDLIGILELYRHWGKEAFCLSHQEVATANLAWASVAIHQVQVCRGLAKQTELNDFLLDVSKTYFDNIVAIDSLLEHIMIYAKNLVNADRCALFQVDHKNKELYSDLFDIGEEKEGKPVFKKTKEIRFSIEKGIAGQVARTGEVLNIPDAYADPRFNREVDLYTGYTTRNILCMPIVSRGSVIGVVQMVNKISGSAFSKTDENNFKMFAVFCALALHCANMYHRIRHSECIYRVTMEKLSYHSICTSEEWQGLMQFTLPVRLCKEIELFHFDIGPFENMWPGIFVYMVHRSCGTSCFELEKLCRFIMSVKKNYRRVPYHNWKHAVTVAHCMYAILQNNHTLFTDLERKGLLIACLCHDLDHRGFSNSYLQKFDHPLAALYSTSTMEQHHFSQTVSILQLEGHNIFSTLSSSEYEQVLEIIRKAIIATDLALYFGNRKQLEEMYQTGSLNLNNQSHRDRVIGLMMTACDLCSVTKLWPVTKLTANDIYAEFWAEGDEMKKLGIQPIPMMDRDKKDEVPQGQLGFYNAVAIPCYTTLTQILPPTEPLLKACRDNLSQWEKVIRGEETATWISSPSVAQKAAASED

| Structure (SMILES) | pKi |
| --- | --- |
| CCc1nc(C)nn1-c1cc([C@@H]2C[C@H]2c2nc3ccccc3n2C)nc(C)n1 [Cpd 92, 2-{(1R,2R)-2-[6-(5-ethyl-3-methyl-1H-1,2,4-triazol-1-yl)-2-methylpyrimidin-4-yl]cyclopropyl}-1-methyl-1H-benzimidazole] | 9.40 |
| COc1ccc(Cc2nc(C)nn2-c2cc(C3CC3c3ccc(C)cn3)nc(C)n2)cc1OC (centres unmarked) [Cpd 35, 4-(5-(3,4-dimethoxybenzyl)-3-methyl-1H-1,2,4-triazol-1-yl)-2-methyl-6-(2-(5-methylpyridin-2-yl)cyclopropyl)pyrimidine] | 9.68 |
| COc1ccc(Cc2nc(C)nn2-c2cc(/C=C/c3ccc(C)cn3)nc(C)n2)cc1OC [Cpd 20, (E)-4-(5-(3,4-dimethoxybenzyl)-3-methyl-1H-1,2,4-triazol-1-yl)-2-methyl-6-(2-(5-methylpyridin-2-yl)vinyl)pyrimidine] | 9.96 |
| Cc1ccc2nc(C3CC3c3cc(-n4nc(C)nc4C)nc(C)n3)[nH]c2c1 (centres unmarked) [Cpd 58, 2-(2-(6-(3,5-dimethyl-1H-1,2,4-triazol-1-yl)-2-methylpyrimidin-4-yl)cyclopropyl)-6-methyl-1H-benzo[d]imidazole] | 7.46 |
| COC[C@@H](C)Oc1nc([C@@H]2C[C@H]2c2nc3ccccc3n2C)cc(-n2nc(C)nc2C)n1 [Cpd 66, 2-[(1R,2R)-2-{6-(3,5-dimethyl-1H-1,2,4-triazol-1-yl)-2-[(1R)-2-methoxy-1-methylethoxy]pyrimidin-4-yl}cyclopropyl]-1-methyl-1H-benzimidazole] | 9.20 |
| Cc1nc([C@@H]2C[C@H]2c2nc3ccccc3n2Cc2ccncc2)cc(-n2nc(C)nc2C)n1 (stereo in doubt) [Cpd 76, 2-{2-[6-(3,5-dimethyl-1H-1,2,4-triazol-1-yl)-2-methylpyrimidin-4-yl]cyclopropyl}-1-(pyridin-4-ylmethyl)-1H-benzimidazole] | 7.74 |
| Cc1nc(C)n(-c2cc([C@H]3C[C@@H]3c3nc4ccccc4n3C)nc(N3CCN(C)CC3)n2)n1 (relative stereo) [Cpd 121, trans-2-{2-[6-(3,5-dimethyl-1H-1,2,4-triazol-1-yl)-2-(4-methylpiperazin-1-yl)pyrimidin-4-yl]cyclopropyl}-1-methyl-1H-benzimidazole] | 8.51 |
| Cc1nc([C@H]2C[C@@H]2c2nc3ccccc3n2CCF)cc(-n2nc(C)nc2C)n1 [Cpd 102, 2-{(1S,2S)-2-[6-(3,5-dimethyl-1H-1,2,4-triazol-1-yl)-2-methylpyrimidin-4-yl]cyclopropyl}-1-(2-fluoroethyl)-1H-benzimidazole] | < 7.12 |
| Cc1nc(C2CC2c2nnc(C)o2)cc(-n2nc(C)nc2C)n1 (centres unmarked) [Cpd 39, 3,5-dimethyl-1-(2-methyl-6-(2-(5-methyl-1,3,4-oxadiazol-2-yl)cyclopropyl)pyrimidin-4-yl)-1H-1,2,4-triazol-4-ium] | 6.04 |
| Cc1nc(C2CC2c2nc3ccc(Cl)cc3[nH]2)cc(-n2nc(C)nc2C)n1 (centres unmarked) [Cpd 57, 6-chloro-2-(2-(6-(3,5-dimethyl-1H-1,2,4-triazol-1-yl)-2-methylpyrimidin-4-yl)cyclopropyl)-1H-benzo[d]imidazole] | 7.51 |
| Cc1nc(C)n(-c2cc([C@@H]3C[C@H]3c3nc4ccccc4n3C)nc(OCC3CCO3)n2)n1 (stereo partly drawn) [Cpd 138, 2-((1R,2R)-2-(6-(3,5-dimethyl-1H-1,2,4-triazol-1-yl)-2-(oxetan-2-ylmethoxy)pyrimidin-4-yl)cyclopropyl)-1-methyl-1H-benzo[d]imidazole] | 8.89 |
| COc1ccc(C2CC2c2cc(-n3nc(C)nc3Cc3ccc(OC)c(OC)c3)nc(C)n2)nc1 (centres unmarked) [Cpd 43, 4-(5-(3,4-dimethoxybenzyl)-3-methyl-1H-1,2,4-triazol-1-yl)-6-(2-(5-methoxypyridin-2-yl)cyclopropyl)-2-methylpyrimidine] | 9.41 |
| CCc1nc(C)nn1-c1cc([C@H]2C[C@@H]2c2nc3ccccc3n2C)nc(C)n1 (stereo in doubt) [Cpd 83, 2-{2-[6-(5-ethyl-3-methyl-1H-1,2,4-triazol-1-yl)-2-methylpyrimidin-4-yl]cyclopropyl}-1-methyl-1H-benzimidazole] | 9.02 |
| Cc1nc([C@@H]2C[C@H]2c2nc3ccccc3n2C)cc(-n2nc(C)nc2C2CCN(C)CC2)n1 [Cpd 96, 1-methyl-2-[(1R,2R)-2-{2-methyl-6-[3-methyl-5-(1-methylpiperidin-4-yl)-1H-1,2,4-triazol-1-yl]pyrimidin-4-yl}cyclopropyl]-1H-benzimidazole] | 8.41 |
| Cc1nc([C@@H]2C[C@H]2c2nc3ccccc3n2C)cc(-n2cnc(C)n2)n1 [Cpd 77, 1-methyl-2-{(1R,2R)-2-[2-methyl-6-(3-methyl-1H-1,2,4-triazol-1-yl)pyrimidin-4-yl]cyclopropyl}-1H-benzimidazole] | 8.05 |
| Cc1nc([C@H]2C[C@@H]2c2nc3ccccc3n2C)cc(-n2nc(C)nc2O)n1 (stereo in doubt) [Cpd 78, 3-methyl-1-{2-methyl-6-[2-(1-methyl-1H-benzimidazol-2-yl)cyclopropyl]pyrimidin-4-yl}-1H-1,2,4-triazol-5-ol] | < 7.12 |
| Cc1nc(C)n(-c2cc([C@@H]3C[C@H]3c3nc4ccccc4n3C)nc(N3CC(F)(F)C3)n2)n1 [Cpd 132, 2-((1R,2R)-2-(2-(3,3-difluoroazetidin-1-yl)-6-(3,5-dimethyl-1H-1,2,4-triazol-1-yl)pyrimidin-4-yl)cyclopropyl)-1-methyl-1H-benzo[d]imidazole] | 9.12 |
| COc1ccc2nc(C3CC3c3cc(-n4nc(C)nc4C)nc(C)n3)[nH]c2c1 (centres unmarked) [Cpd 59, 2-(2-(6-(3,5-dimethyl-1H-1,2,4-triazol-1-yl)-2-methylpyrimidin-4-yl)cyclopropyl)-6-methoxy-1H-benzo[d]imidazole] | 7.52 |
| Cc1nc([C@@H]2C[C@H]2c2nc3ccccc3[nH]2)cc(-n2nc(C)nc2C)n1 [Cpd 89, 2-{(1R,2R)-2-[6-(3,5-dimethyl-1H-1,2,4-triazol-1-yl)-2-methylpyrimidin-4-yl]cyclopropyl}-1H-benzimidazole] | 8.59 |
| Cc1nc([C@@H]2C[C@H]2c2nc3ccccc3n2C)cc(-n2nc(C)nc2[C@@H]2CCCO2)n1 [Cpd 101, 1-methyl-2-[(1R,2R)-2-(2-methyl-6-{3-methyl-5-[(2S)-tetrahydrofuran-2-yl]-1H-1,2,4-triazol-1-yl}pyrimidin-4-yl)cyclopropyl]-1H-benzimidazole] | 8.24 |
| CSc1nc([C@@H]2C[C@H]2c2nc3ccccc3n2C)cc(-n2nc(C)nc2C)n1 [Cpd 69, 2-{(1R,2R)-2-[6-(3,5-dimethyl-1H-1,2,4-triazol-1-yl)-2-(methylsulfanyl)pyrimidin-4-yl]cyclopropyl}-1-methyl-1H-benzimidazole] | 9.43 |
| Cc1nc(C)n(-c2cc([C@@H]3C[C@H]3c3nc4ccccc4n3C)nc(O)n2)n1 (relative stereo) [Cpd 125, trans-4-(3,5-dimethyl-1H-1,2,4-triazol-1-yl)-6-[2-(1-methyl-1H-benzimidazol-2-yl)cyclopropyl]pyrimidin-2-ol] | 7.72 |
| Cc1nc(C2CC2c2nc3ccccc3n2Cc2ccccc2)cc(-n2nc(C)nc2C)n1 (centres unmarked) [Cpd 52, 1-benzyl-2-(2-(6-(3,5-dimethyl-1H-1,2,4-triazol-1-yl)-2-methylpyrimidin-4-yl)cyclopropyl)-1H-benzo[d]imidazole] | 7.87 |
